From patent US20120220480A1, “METHOD FOR THE DETECTION OF RENAL DAMAGE” (UNIVERSIDAD DE SALAMANCA, priority 2009, published 2012)
Marks after values point to notes of the source that are not given here.

Tests used:
Female Wistar rats = assay: Gentamicin-induced kidney damage in rats: survival, body weight, serum and urine biochemical measurements
Experimental: (§1) Female Wistar rats were used weighing 200-250 g. The animals were allocated under controlled environmental conditions in individual metabolic cages, for individual urine sample collection every 24 hours. Normal feed and water were administered ad libitum. […] On day 7, the animals were anaesthetised with sodium pentobarbital and the kidneys were perfused by the aorta with saline (0.9% NaCl) to eliminate the blood. The kidneys were immediately dissected. One was frozen in liquid nitrogen and subsequently kept at −80° C. for Western blot studies, and the other was soaked in p-formaldehyde at 3.7% for histological studies. Blood samples were also obtained in heparinised capillaries at different time points by a small incision in the tail tip. Blood was centrifuged and serum was kept at −80° C. until use. Urine was cleared by centrifugation at 10,000 g and 4° C. during 10 minutes, and kept at −80° C. until use.
Serum and urinary creatinine and urea nitrogen concentration were measured using commercial reactive strips (Roche Diagnostics) and the Reflotron® automated analyser (Roche Diagnostics). […] Urine protein concentration was measured by the Bradford method (Bradford, 1976. Anal Biochem, 72: 248-254). Urine NAG content was indirectly determined by the level of NAG activity. NAG enzymatic activity was determined by a colorimetric method based on the conversion of 3-cresolsulfonphthaleinyl-N-acetyl-D-glucosaminide into the purple 3-cresol-cresolsulfonphthaleinyl, measured at 580 nm using a plate photometer (Thermo). To measure NAG activity a commercial kit was used (Roche Diagnostics) following the manufacturer's instructions.

gelsolin [1] = assay: Western blot analysis of gelsolin in urine and serum of treated rats
Experimental: as §1
Western blots were run with (i) urine samples (21 μl per sample), (ii) tissue extracts (100 μg total protein per sample) prepared by homogenizing the kidneys with a tissue mixer (Ultra-Turrax T8, IKA®-Werwe) at 4° C. in homogenization buffer (140 mM NaCl, 20 mM Tris-HCl pH=7.5, […] ethylenediaminetetraacetic acid—EDTA-, 10% glycerol, 1% Igepal CA-630, 1 μg/mL aprotinin, 1 μg/mL leupeptin, 1 μg/mL pepstatin A, 1 mM phenylmethylsulphonyl fluoride—PMSF—), or (iii) albumin-free blood serum. Albumin was removed from serum with a column-based, commercial kit based on the immunological retention of rat albumin (Qproteome Murine Albumin Depletion Kit, Quiagen). Samples were separated by electrophoresis in 10-15% acrylamide gels (Mini Protean II system, BioRad). Immediately, proteins were electrically transferred to an Immobilon-P membrane (Millipore). Membranes were probed with antibodies against KIM-1 (R&D Systems), bone morphogenetic protein 7 (BMP-7, Santa Cruz Biotechnology), NGAL (MBL), PAI-1 (BD Biosciences), reg IIIb (R&D Systems), and gelsolin (Santa Cruz Biotechnology).

Kidney sections = assay: Renal histopathological study (hematoxilin and eosin stained kidney sections); format: in vivo, rat; conditions: rats
Experimental: (§2) Female Wistar rats were used weighing 200-250 g. […] Normal feed and water were administered ad libitum. […] The kidneys were immediately dissected.
The kidneys were kept in p-formaldehyde all night at 4° C. Next, paraffin blocks were made and 5-μm tissue sections were cut and stained with hematoxilin and eosin. Photographs were taken under an Olympus BX51 microscope connected to an Olympus DP70 colour digital camera.

reg IIIb [2] = assay: Western blot analysis of reg IIIb in urine and serum of treated rats
Experimental: Female Wistar rats were used weighing 200-250 g. The animals were allocated under controlled environmental conditions in individual metabolic cages, for individual urine sample collection every 24 hours. Normal feed and water were administered ad libitum. […] On day 7, the animals were anaesthetised with sodium pentobarbital and the kidneys were perfused by the aorta with saline (0.9% NaCl) to eliminate the blood. The kidneys were immediately dissected. One was frozen in liquid nitrogen and subsequently kept at −80° C. for Western blot studies, and the other was soaked in p-formaldehyde at 3.7% for histological studies. Blood samples were also obtained in heparinised capillaries at different time points by a small incision in the tail tip. Blood was centrifuged and serum was kept at −80° C. until use. Urine was cleared by centrifugation at 10,000 g and 4° C. during 10 minutes, and kept at −80° C. until use. […]

reg IIIb [3] = assay: Renal tissue gene expression by RT-PCR, reg IIIb; format: in vivo, rat; conditions: as early as on day 3, highest on day 6 (FIG. 8-A)
Experimental: as §2
(§3) RT-PCR-amplification of reg IIIb, gelsolin and GAPDH was performed with the next primers: for rat reg IIIb, SEQ ID NO: 15 and SEQ ID NO: 16; for rat gelsolin, SEQ ID NO: 17 and SEQ ID NO: 18; for rat glyceraldehyde 3-phosphate dehydrogenase (GAPDH), SEQ ID NO: 19 and SEQ ID NO: 20. PCR conditions were: 1×(95° C.×4 min); 30×(95° C.×1 min+Tm×1 min); 1×72° C.×10 min); where Tm was 55.5° C. for reg IIIb, 55.0° C. for gelsolin, and 55.9° C. for GAPDH.

gelsolin [4] = assay: Renal tissue gene expression by RT-PCR, gelsolin; format: in vivo, rat; conditions: 3 and 6 days treatment (FIG. 8)
Experimental: as §2, §3

[5] = Leehey D J et al., 1993; cited from earlier work
[6] = rats, gentamicin i.p. 150 mg/kg, after 7 days treatment

| Molecule | Renal failure (serum creatinine concentration and BUN) (Female Wistar rats; rat, in vivo) | Full length gelsolin band in urine (gelsolin [1]; rat, in vivo) | ~43 kDa gelsolin fragment (t-gelsolin) band in urine (gelsolin [1]; rat, in vivo) | Proteinuria (Female Wistar rats; [6]) | Urine flow (Female Wistar rats; [6]) | Δ Weight (body weight as a percentage of the initial weight) (Female Wistar rats; [6]) | Renal histopathology after 3 days of treatment (Kidney sections; after 3 days of treatment (FIG. 7)) | Renal histopathology at end of treatment (Kidney sections; hematoxilin-eosin, end of treatment (FIG. 2)) | Day on which reg IIIb appears in the urine (reg IIIb [2]; rats, time course of treatment, Western blot (FIG. 7)) [days] | Urinary level of reg IIIb (reg IIIb [2]; urine of rats with overt renal failure, Western blot (FIG. 6-A)) | Full length gelsolin band in urine (gelsolin [1]; urine of rats with overt renal failure, Western blot (FIG. 6)) | Renal reg IIIb gene expression (reg IIIb [3]) | Renal expression pattern of gelsolin (gelsolin [4]) | Proportion of treatments in which nephrotoxicity appears [5] |
| --- | --- | --- | --- | --- | --- | --- | --- | --- | --- | --- | --- | --- | --- | --- |
| N.N.[Cl][Pt][Cl] [cisplatin] | developed an overt renal failure | absent in the urine from all of the rats treated with cisplatin, except for one of them | common to both gentamicin and cisplatin groups | – | – | – | – | – | – | – | – | – | – | – |
| gentamicin | – | – | – | 40 ± 7.4^a mg/day | 18 ± 3^a mL/day | 95 ± 3^a % | no findings of tubular damage | clear tubular necrosis | 4 | markedly increased | induces the appearance | induces an increase | does not modify | 10-25% |
